Data published in patent US20190076417A1, “COMPOSITIONS AND METHODS FOR TREATING OR PREVENTING ATRIAL FIBRILLATION” (Northwestern University, priority 2010, published 2019).

Legend:
[1] = system: M2 versus M3 muscarinic receptor subtype; details: cited from earlier work
[2] = system: M2 versus M1 muscarinic receptor subtype; details: cited from earlier work
[3] = system: canines subjected to heart failure (HF); test: Vagal stimulation induced ERP shortening in canine heart failure model (rapid ventricular pacing); format: in vivo; details: left atrium, in presence of AChE inhibitor, without it 10±4
Method: Effective Refractory Periods. Effective refractory periods (ERPs) were obtained from 5 distributed sites from the PV, 6 sites from the PLA, and 4 sites from the LAA during each autonomic intervention. For each ERP, the pacing protocol consisted of a drive train (S1) of eight beats with a cycle length of 400 ms followed by an extrastimulus (S2). The S2 was decremented by 10 ms until loss of capture. […] Pacing was performed at an output current twice the threshold required for consistent capture of the tissue. The mean ERP was used as the representative ERP for each of the three sites as well as the entire left atrium.
Canines were subjected to heart failure (HF) by rapid ventricular pacing (240/min for 3 weeks). Vagal stimulation induced ERP shortening (VS-ΔERP)(ms) was assessed in the test canines as well as controls at multiple sites in the LA. VS-ΔERP was reassessed in the presence of an acetylcholineesterase (AChE) inhibitor (physostigmine). Explanted LA were subjected to 1) ELISA for acetylcholinesterase (AChE) activity, 2) AChE immunostaining and 3) radioactive M2 receptor binding assay.

[4] = system: canine model, vagal stimulation; test: Canine arrhythmia model: ERP shortening and AF induced by vagal stimulation; format: in vivo; details: 20 microgram/kg single iv, 10-15 minutes after administration
Method: Canine Arrhythmia Model. […] Bioorg. Med. Chem. 2007, 15, 2312-2321), was evaluated for its ability to decrease effective refractory period and atrial fibrillation induced by vagal stimulation. Open chest electrophysiological mapping was performed in a canine model as previously described (Arora, R. et al. Am. J. Physiol. Heart Circ. Physiol. 2008, 294, […]-[…]). […] At baseline, effective refractory periods (ERPs) were obtained at multiple sites on each plaque in the absence and presence of vagal stimulation (VS). AF inducibility was also assessed under each of these conditions i.e. with and without VS. After baseline measurements had been made, methoctramine tetrahydrochloride hydrate (20 microgram/kg), dissolved in normal saline, was administered via a single iv injection. 10-15 minutes after methoctramine administration, ERPs and AF inducibility were reassessed in the absence and presence of VS.

SMILES: Cc1ccc(O)c([C@H](CCN(C(C)C)C(C)C)c2ccccc2)c1 [tolterodine]
- selectivity for M2 versus M3 [1]: 1.7 fold

SMILES: Cc1cccc(C(=O)N2CCC(N3CCC(Cc4ccc(S(=O)(=O)c5cccc(Cl)c5)cc4)CC3)CC2)c1N [Sch 211803]
- selectivity for M2 versus M1 [2]: 734 fold
- selectivity for M2 versus M3 [1]: 786 fold

SMILES: CNC(=O)Oc1ccc2c(c1)[C@]1(C)CCN(C)[C@@H]1N2C [physostigmine]
- Vagal stimulation induced ERP shortening (VS-ΔERP) [3]: 28 ± 4 ms

SMILES: CC(C)N(CC[C@H](c1ccccc1)c1cc(CO)ccc1O)C(C)C
- selectivity for M2 versus M3 [1]: 2 fold

SMILES: COc1ccncc1CN1CCC(N(CCCCCCCN2CC[C@@H](C(C(N)=O)(c3ccccc3)c3ccccc3)C2)C(C)C)CC1 [TD-6301]
- selectivity for M2 versus M1 [2]: 31 fold
- selectivity for M2 versus M3 [1]: 36 fold

SMILES: COc1ccccc1CNCCCCCCNCCCCCCCCNCCCCCCNCc1ccccc1OC [methoctramine]
- Vagal induced AF [4]: markedly decreased
- Vagal induced ERP shortening ([4]; baseline 40 ms, p<0.01): 10 ms
- selectivity for M2 versus M1 [2]: 35 fold
- selectivity for M2 versus M3 [1]: 219 fold
